# Laboratory results: US9433621B2, “Substituted pyridine and pyrimidine derivatives and their use in treating viral infections” (Merck Sharp & Dohme Corp., priority 2010, dated 2016)
# Test system: HCV replicon
# Assay: Cell-Based HCV Replicon Assay
# Conditions: Hepatitis C virus, 72 h; Table V, class codes; replicon cells, day 3, real time PCR; EC90 = concentration for ΔCT=3.2 over baseline; read-out: EC90 (uM) range
# Method: Cell-Based HCV Replicon Assay
# To measure cell-based anti-HCV activity of the compounds of the present invention, replicon cells were seeded at 5000 cells/well in 96-well collagen I-coated Nunc plates in the presence of the compound of the invention. Various concentrations of a compound of the invention, typically in 10 serial 2-fold dilutions, were added to the assay mixture, the starting concentration of the compound ranging from 25 μM to 1 μM. The final concentration of DMSO was 0.5%, fetal bovine serum was 10%, in the assay media. Cells were harvested on day 3 by the addition of 1× cell lysis buffer (Ambion cat #8721). The replicon RNA level was measured using real time PCR (Taqman assay). The amplicon was located in 5B. The PCR primers were: 5B.2F, ATGGACAGGCGCCCTGA; 5B.2R, […]; the probe sequence was FAM-labeled CACGCCATGCGCTGCGG. GAPDH RNA was used as endogenous control and was amplified in the same reaction as NS5B (multiplex PCR) using primers and VIC-labeled probe recommended by the manufacturer (PE Applied Biosystem). The real-time RT-PCR reactions were run on ABI PRISM® 7900HT Sequence Detection System using the following program: 48′C for 30 min, 95′C for 10 min, 40 cycles of 95′C for 15 sec, 60′C for 1 min. The ΔCT values (CT5B-CTGAPDH) were plotted against the concentration of test compound and fitted to the sigmoid dose-response model using Graph Pad PRISM® software. EC50 was defined as the concentration of inhibitor necessary to achieve ΔCT=1 over the projected baseline; EC90 the concentration necessary to achieve ΔCT=3.2 over the baseline. Alternatively, to quantitate the absolute amount of replicon RNA, a standard curve was established by including serially diluted T7 transcripts of replicon RNA in the Taqman assay. All Taqman reagents were from PE Applied Biosystems. Such an assay procedure was described in detail in e.g. Malcolm et al., Antimicrobial Agents and Chemotherapy 50: 1013-1020 (2006).
# HCV Replicon assay data for compounds of the invention that were tested were obtained using the above method.
row,Compound,EC90
1,Cc1nc(NCC2CC2)nc(N[C@@H]2C[C@H](C(=O)N3CCOCC3)[C@@H](O)[C@H]2O)c1-c1nc2c(C3CC3)nccc2s1 [Example 4924],< 0.5 µM
2,Cc1nc(N)nc(N[C@@H]2C[C@H](C(=O)N3CCOCC3)[C@@H](O)[C@H]2O)c1-c1nc2c(C3CC3)nccc2s1 [Example 4925],< 0.5 µM
3,COCCNc1nc(C)c(-c2nc3c(C4CC4)nccc3s2)c(N[C@@H]2C[C@H](C(=O)Nc3nccs3)[C@@H](O)[C@H]2O)n1 [Example 4926],< 0.5 µM
4,Cc1nc(NCC2CC2)nc(N[C@@H]2C[C@H](C(=O)Nc3nccs3)[C@@H](O)[C@H]2O)c1-c1nc2c(C3CC3)nccc2s1 [Example 4927],< 0.5 µM
5,Cc1nc(N[C@H](C)c2ccc(OC(F)(F)F)cc2)nc(N[C@@H]2C[C@H](C(=O)Nc3nccs3)[C@@H](O)[C@H]2O)c1-c1nc2c(C3CC3)nccc2s1 [Example 4928],< 0.5 µM
6,Cc1nc(N)nc(N[C@@H]2C[C@H](C(=O)NC(C)(C)C)[C@@H](O)[C@H]2O)c1-c1nc2c(C3CC3)nccc2s1 [Example 4929],< 0.5 µM
7,COCCNc1nc(C)c(-c2nc3c(C4CC4)nccc3s2)c(N[C@@H]2C[C@H](C(=O)NC(C)(C)C)[C@@H](O)[C@H]2O)n1 [Example 4930],< 0.5 µM
8,Cc1nc(NCC2CC2)nc(N[C@@H]2C[C@H](C(=O)NC(C)(C)C)[C@@H](O)[C@H]2O)c1-c1nc2c(C3CC3)nccc2s1 [Example 4931],< 0.5 µM
9,Cc1nc(N[C@H](C)c2ccc(F)cc2)nc(N[C@@H]2C[C@H](CO)[C@@H](O)[C@H]2O)c1-c1nc2c(C3CC3)nccc2s1 [Example 4932],< 0.5 µM
10,Cc1cccc([C@@H](C)Nc2nc(C)c(-c3nc4c(C5CC5)nccc4s3)c(N[C@@H]3C[C@H](CO)[C@@H](O)[C@H]3O)n2)c1 [Example 4933],< 0.5 µM
11,Cc1ccccc1[C@@H](C)Nc1nc(C)c(-c2nc3c(C4CC4)nccc3s2)c(N[C@@H]2C[C@H](CO)[C@@H](O)[C@H]2O)n1 [Example 4934],< 0.5 µM
12,Cc1nccc2sc(-c3cnc(NCC4CC4)nc3N[C@@H]3C[C@H](C(C)(C)O)[C@@H](O)[C@H]3O)nc12 [Example 4935],< 0.5 µM
13,CCSCCNc1ncc(-c2nc3c(C)nccc3s2)c(N[C@@H]2C[C@H](C(C)(C)O)[C@@H](O)[C@H]2O)n1 [Example 4936],< 0.5 µM
14,Cc1nccc2sc(-c3cnc(N)nc3N[C@@H]3C[C@H](C(C)(C)O)[C@@H](O)[C@H]3O)nc12 [Example 4937],0.5 to 5 µM
15,COCCNc1ncc(-c2nc3c(C)nccc3s2)c(N[C@@H]2C[C@H](C(C)(C)O)[C@@H](O)[C@H]2O)n1 [Example 4938],< 0.5 µM
16,CO[C@H](C)CNc1ncc(-c2nc3c(C)nccc3s2)c(N[C@@H]2C[C@H](C(C)(C)O)[C@@H](O)[C@H]2O)n1 [Example 4939],< 0.5 µM
17,Cc1nccc2sc(-c3cnc(NCCSC(C)(C)C)nc3N[C@@H]3C[C@H](C(C)(C)O)[C@@H](O)[C@H]3O)nc12 [Example 4940],< 0.5 µM

row,Compound,EC90
1,COC[C@@H](C)Nc1ncc(-c2nc3c(C)nccc3s2)c(N[C@@H]2C[C@H](C(C)(C)O)[C@@H](O)[C@H]2O)n1 [Example 4941],< 0.5 µM
2,Cc1nc(NCC2CC2)nc(N[C@@H]2C[C@H](CO)[C@@H](O)[C@H]2O)c1-c1nc2cnc(C3CC3)cc2s1 [Example 4942],< 0.5 µM
3,COCCNc1nc(C)c(-c2nc3cnc(C4CC4)cc3s2)c(N[C@@H]2C[C@H](CO)[C@@H](O)[C@H]2O)n1 [Example 4943],< 0.5 µM
4,Cc1nc(N[C@H](C)c2ccc(OC(F)(F)F)cc2)nc(N[C@@H]2C[C@H](CO)[C@@H](O)[C@H]2O)c1-c1nc2cnc(C3CC3)cc2s1 [Example 4944],< 0.5 µM
5,Cc1nc(N)nc(N[C@@H]2C[C@H](CO)[C@@H](O)[C@H]2O)c1-c1nc2cnc(C3CC3)cc2s1 [Example 4945],< 0.5 µM
6,COCCNc1nc(C)c(-c2nc3cnc(C)cc3s2)c(N[C@@H]2C[C@H](CO)[C@@H](O)[C@H]2O)n1 [Example 4946],< 0.5 µM
7,Cc1nc(N[C@H](C)c2ccc(OC(F)(F)F)cc2)nc(N[C@@H]2C[C@H](C(=O)NC(C)(C)C)[C@@H](O)[C@H]2O)c1-c1nc2c(C3CC3)nccc2s1 [Example 4947],< 0.5 µM
8,Cc1nc(N)nc(N[C@@H]2C[C@H](C(=O)Nc3ccccc3)[C@@H](O)[C@H]2O)c1-c1nc2c(C3CC3)nccc2s1 [Example 4948],< 0.5 µM
9,COCCNc1nc(C)c(-c2nc3c(C4CC4)nccc3s2)c(N[C@@H]2C[C@H](C(=O)Nc3ccccc3)[C@@H](O)[C@H]2O)n1 [Example 4949],< 0.5 µM
10,Cc1nc(NCC2CC2)nc(N[C@@H]2C[C@H](C(=O)Nc3ccccc3)[C@@H](O)[C@H]2O)c1-c1nc2c(C3CC3)nccc2s1 [Example 4950],< 0.5 µM
11,Cc1nc(N[C@H](C)c2ccc(OC(F)(F)F)cc2)nc(N[C@@H]2C[C@H](C(=O)Nc3ccccc3)[C@@H](O)[C@H]2O)c1-c1nc2c(C3CC3)nccc2s1 [Example 4951],0.5 to 5 µM
12,Cc1cc2sc(-c3c(C)nc(N[C@H](C)C4CC4)nc3N[C@@H]3C[C@H](CO)[C@@H](O)[C@H]3O)nc2cn1 [Example 4952],< 0.5 µM
13,CO[C@H](C)CNc1nc(C)c(-c2nc3cnc(C)cc3s2)c(N[C@@H]2C[C@H](CO)[C@@H](O)[C@H]2O)n1 [Example 4953],< 0.5 µM
14,COCCNc1nc(C)c(-c2nc3c(C)nccc3s2)c(N[C@@H]2C[C@H](C(C)(C)F)[C@@H](O)[C@H]2O)n1 [Example 4954],< 0.5 µM
15,Cc1nc(N[C@H](C)c2ccc(OC(F)(F)F)cc2)nc(N[C@@H]2C[C@H](C(=O)Nc3ccncc3)[C@@H](O)[C@H]2O)c1-c1nc2c(C3CC3)nccc2s1 [Example 4955],< 0.5 µM
16,COCCNc1nc(C)c(-c2nc3c(C4CC4)nccc3s2)c(N[C@@H]2C[C@H](C(=O)Nc3ccncc3)[C@@H](O)[C@H]2O)n1 [Example 4956],< 0.5 µM
17,Cc1nc(NCC2CC2)nc(N[C@@H]2C[C@H](C(=O)Nc3ccncc3)[C@@H](O)[C@H]2O)c1-c1nc2c(C3CC3)nccc2s1 [Example 4957],< 0.5 µM

# Same assay, conditions: Hepatitis C virus; HCV Replicon assay, EC90 range, Table VI; read-out: EC90
row,Compound,EC90
1,Cc1ccc(S(=O)(=O)C[C@H]2C[C@@H](Nc3nc(NCCSC(C)(C)C)nc(C)c3-c3nc4c(C)nccc4s3)[C@H](O)[C@@H]2O)cc1F [Example 5001],< 0.5 µM
2,Cc1cc(S(=O)(=O)C[C@H]2C[C@@H](Nc3nc(NC4CC4)nc(C)c3-c3nc4c(C)nccc4s3)[C@H](O)[C@@H]2O)ccc1F [Example 5002],< 0.5 µM
3,Cc1ccc(S(=O)(=O)C[C@H]2C[C@@H](Nc3nc(NC4CC4)nc(C)c3-c3nc4c(C)nccc4s3)[C@H](O)[C@@H]2O)cc1F [Example 5003],< 0.5 µM
4,Cc1nc(NC2CC2)nc(N[C@@H]2C[C@H](CS(=O)(=O)c3ccc(F)c(F)c3)[C@@H](O)[C@H]2O)c1-c1nc2c(C)nccc2s1 [Example 5004],< 0.5 µM
5,COc1ccc(S(=O)(=O)C[C@H]2C[C@@H](Nc3nc(NC4CC4)nc(C)c3-c3nc4c(C)nccc4s3)[C@H](O)[C@@H]2O)cc1F [Example 5005],< 0.5 µM
6,Cc1cc(S(=O)(=O)C[C@H]2C[C@@H](Nc3nc(NCCSC(C)(C)C)nc(C)c3-c3nc4c(C)nccc4s3)[C@H](O)[C@@H]2O)ccc1F [Example 5006],< 0.5 µM
7,Cc1nc(NCCSC(C)(C)C)nc(N[C@@H]2C[C@H](CS(C)(=O)=O)[C@@H](O)[C@H]2O)c1-c1nc2c(C3CC3)nccc2s1 [Example 5007],< 0.5 µM
8,Cc1cc(S(=O)(=O)C[C@H]2C[C@@H](Nc3nc(NCC4CC4)nc(C)c3-c3nc4c(C)nccc4s3)[C@H](O)[C@@H]2O)ccc1F [Example 5008],< 0.5 µM
